{"source": "ChEMBL document CHEMBL1201862", "about": "“PubChem BioAssay data set” (2004)", "key": {"[1]": {"target": "T1, Short transient receptor potential channel 4 (Mus musculus, UniProt Q9QUQ5)", "T1 sequence (Q9QUQ5 whole entry)": "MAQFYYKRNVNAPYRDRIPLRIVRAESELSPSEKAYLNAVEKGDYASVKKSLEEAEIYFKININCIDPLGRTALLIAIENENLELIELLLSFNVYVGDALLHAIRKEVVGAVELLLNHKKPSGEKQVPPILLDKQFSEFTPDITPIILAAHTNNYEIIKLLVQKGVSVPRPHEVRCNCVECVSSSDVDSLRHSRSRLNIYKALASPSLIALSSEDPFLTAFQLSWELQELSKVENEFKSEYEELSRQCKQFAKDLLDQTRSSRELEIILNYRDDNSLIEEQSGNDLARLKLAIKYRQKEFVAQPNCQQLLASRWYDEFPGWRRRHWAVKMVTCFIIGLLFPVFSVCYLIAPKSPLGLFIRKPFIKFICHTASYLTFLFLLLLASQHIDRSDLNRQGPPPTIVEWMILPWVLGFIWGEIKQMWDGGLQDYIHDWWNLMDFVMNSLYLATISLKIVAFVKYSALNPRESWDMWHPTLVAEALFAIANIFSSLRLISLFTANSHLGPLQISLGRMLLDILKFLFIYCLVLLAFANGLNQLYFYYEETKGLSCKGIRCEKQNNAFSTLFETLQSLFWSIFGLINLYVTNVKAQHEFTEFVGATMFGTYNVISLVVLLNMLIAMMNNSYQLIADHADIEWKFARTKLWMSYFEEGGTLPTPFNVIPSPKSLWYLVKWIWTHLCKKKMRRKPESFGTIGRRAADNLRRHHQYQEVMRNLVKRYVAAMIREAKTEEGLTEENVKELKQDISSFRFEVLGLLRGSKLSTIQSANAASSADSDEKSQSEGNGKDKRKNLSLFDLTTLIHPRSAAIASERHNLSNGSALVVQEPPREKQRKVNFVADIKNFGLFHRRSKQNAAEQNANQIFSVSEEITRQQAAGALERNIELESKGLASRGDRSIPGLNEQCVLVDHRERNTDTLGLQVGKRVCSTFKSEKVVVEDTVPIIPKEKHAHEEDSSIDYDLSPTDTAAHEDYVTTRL", "assay": "block of DAMGO-driven TRPC4 calcium entry – cell-based, HEK293 TRPC4/mu-opioid, Fluo-4 calcium, dose response (AID 434942);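 further: potency of inhibitors blocking the TRPC4 calcium response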", "assay_type": "functional"}, "Mu-type opioid receptor": {"target": "Mu-type opioid receptor (Homo sapiens, UniProt P35372)", "sequence (P35372 whole entry)": "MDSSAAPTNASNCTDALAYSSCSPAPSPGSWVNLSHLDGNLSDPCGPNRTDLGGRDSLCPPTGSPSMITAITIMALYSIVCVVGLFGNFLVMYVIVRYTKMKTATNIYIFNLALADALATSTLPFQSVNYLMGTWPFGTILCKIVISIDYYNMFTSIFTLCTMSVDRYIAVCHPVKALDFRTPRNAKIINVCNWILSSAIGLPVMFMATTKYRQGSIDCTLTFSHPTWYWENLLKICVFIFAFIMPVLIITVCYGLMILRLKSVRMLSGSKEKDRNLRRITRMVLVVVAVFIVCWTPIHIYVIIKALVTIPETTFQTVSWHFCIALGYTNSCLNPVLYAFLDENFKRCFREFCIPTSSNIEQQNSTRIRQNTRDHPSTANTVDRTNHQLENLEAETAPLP", "assay_type": "functional, cell-based"}, "[2]": {"target": "5-hydroxytryptamine receptor 2A (Mus musculus, UniProt P35363)", "sequence (P35363 whole entry)": "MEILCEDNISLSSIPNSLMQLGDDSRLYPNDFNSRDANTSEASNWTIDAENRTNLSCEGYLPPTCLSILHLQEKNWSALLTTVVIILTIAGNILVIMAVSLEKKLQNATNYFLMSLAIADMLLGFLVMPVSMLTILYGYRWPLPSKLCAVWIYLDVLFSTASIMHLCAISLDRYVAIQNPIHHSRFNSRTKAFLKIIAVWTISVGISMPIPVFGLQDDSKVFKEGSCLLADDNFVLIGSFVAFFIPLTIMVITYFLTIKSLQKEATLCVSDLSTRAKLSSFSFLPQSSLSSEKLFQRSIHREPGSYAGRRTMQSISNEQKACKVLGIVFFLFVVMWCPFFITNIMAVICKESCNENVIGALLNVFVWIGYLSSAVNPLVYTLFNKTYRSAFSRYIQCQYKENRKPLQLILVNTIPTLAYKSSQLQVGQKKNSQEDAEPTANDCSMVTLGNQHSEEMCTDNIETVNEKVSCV", "assay_type": "functional, cell-based"}, "[3]": {"assay": "viability loss in HeLa cells – cytotoxicity control for MgcRacGAP inhibitor project, dose response (AID 624300)", "assay_type": "functional"}, "[4]": {"target": "T2, Rac GTPase-activating protein 1 (Homo sapiens, UniProt Q9H0H5)", "T2 sequence (Q9H0H5 whole entry)": "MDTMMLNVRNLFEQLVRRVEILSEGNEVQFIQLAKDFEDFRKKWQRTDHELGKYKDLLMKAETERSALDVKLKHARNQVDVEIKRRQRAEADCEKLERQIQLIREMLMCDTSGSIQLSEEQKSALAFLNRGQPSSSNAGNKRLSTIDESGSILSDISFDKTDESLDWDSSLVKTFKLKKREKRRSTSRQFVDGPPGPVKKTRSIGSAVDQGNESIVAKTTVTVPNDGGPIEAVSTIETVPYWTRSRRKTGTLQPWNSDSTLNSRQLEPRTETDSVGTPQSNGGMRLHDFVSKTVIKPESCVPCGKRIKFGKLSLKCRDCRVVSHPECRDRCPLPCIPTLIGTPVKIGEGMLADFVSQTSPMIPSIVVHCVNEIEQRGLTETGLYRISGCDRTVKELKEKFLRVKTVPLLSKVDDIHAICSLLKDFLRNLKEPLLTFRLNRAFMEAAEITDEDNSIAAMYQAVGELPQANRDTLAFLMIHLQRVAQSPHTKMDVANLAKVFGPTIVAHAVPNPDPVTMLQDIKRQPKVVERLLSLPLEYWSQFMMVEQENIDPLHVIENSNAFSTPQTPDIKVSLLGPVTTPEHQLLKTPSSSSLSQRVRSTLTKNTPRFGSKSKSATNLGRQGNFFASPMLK", "assay": "blockers of MgcRacGAP-driven Rac1 GTP hydrolysis – biochemical, ADP Hunter fluorescence, primary and confirmatory, confirmation (AID 624330)", "assay_type": "functional"}, "Albumin": {"target": "Albumin (Bos taurus, UniProt P02769)", "sequence (P02769 whole entry)": "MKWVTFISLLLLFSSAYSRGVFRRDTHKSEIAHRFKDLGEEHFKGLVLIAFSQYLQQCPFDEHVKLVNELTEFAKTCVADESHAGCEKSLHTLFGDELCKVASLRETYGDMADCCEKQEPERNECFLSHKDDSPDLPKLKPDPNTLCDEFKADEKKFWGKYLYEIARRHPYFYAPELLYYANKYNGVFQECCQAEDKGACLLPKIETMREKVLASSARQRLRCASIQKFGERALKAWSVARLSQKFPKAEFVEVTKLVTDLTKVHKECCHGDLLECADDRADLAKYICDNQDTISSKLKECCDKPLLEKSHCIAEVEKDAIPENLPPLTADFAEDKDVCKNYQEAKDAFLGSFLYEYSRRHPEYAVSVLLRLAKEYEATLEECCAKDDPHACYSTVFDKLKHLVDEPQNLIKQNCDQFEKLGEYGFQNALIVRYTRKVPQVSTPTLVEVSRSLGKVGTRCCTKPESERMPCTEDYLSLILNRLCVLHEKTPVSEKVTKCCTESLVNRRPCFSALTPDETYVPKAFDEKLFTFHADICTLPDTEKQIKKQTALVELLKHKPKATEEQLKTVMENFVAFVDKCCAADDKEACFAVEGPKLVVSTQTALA", "assay": "Counterscreen for inhibitors of T-cell receptor (TCR)-CD3 interaction: Fluorescence-based biochemical high throughput dose response assay to identify inhibitors of T-cell receptor (TCR)-CD3 interaction using a TAMRA-labeled BSA probe.", "assay_type": "functional"}, "[5]": {"target": "T3, Long-chain-fatty-acid--AMP ligase FadD28 (Mycobacterium tuberculosis, UniProt P9WQ59)", "T3 sequence (P9WQ59 whole entry)": "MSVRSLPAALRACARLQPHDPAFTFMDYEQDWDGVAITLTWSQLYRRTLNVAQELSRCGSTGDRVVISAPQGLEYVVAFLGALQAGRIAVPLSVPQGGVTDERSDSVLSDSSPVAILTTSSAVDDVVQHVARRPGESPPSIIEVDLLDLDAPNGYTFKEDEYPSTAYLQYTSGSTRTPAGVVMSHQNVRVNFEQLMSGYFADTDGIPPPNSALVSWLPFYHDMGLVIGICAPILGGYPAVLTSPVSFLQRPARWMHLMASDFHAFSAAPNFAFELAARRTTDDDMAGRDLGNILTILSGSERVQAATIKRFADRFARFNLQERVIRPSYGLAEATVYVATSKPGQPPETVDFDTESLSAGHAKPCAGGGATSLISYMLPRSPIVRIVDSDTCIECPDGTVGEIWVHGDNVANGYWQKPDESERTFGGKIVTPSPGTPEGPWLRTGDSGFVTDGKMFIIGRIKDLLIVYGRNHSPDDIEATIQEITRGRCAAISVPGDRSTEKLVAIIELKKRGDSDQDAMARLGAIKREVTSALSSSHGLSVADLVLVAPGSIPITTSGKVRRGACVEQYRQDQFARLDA", "assay": "Fluorescence polarization aasay to screen for inhibitors that compete for the binding of FadD28 to a bisubstrate Measured in Biochemical System Using Plate Reader - 2147-01_Inhibitor_Dose_CherryPick_Activity.", "assay_type": "functional, Mycobacterium tuberculosis H37Rv"}, "[6]": {"target": "T4, Heat shock factor protein 1 (Mus musculus, UniProt P38532)", "T4 sequence (P38532 whole entry)": "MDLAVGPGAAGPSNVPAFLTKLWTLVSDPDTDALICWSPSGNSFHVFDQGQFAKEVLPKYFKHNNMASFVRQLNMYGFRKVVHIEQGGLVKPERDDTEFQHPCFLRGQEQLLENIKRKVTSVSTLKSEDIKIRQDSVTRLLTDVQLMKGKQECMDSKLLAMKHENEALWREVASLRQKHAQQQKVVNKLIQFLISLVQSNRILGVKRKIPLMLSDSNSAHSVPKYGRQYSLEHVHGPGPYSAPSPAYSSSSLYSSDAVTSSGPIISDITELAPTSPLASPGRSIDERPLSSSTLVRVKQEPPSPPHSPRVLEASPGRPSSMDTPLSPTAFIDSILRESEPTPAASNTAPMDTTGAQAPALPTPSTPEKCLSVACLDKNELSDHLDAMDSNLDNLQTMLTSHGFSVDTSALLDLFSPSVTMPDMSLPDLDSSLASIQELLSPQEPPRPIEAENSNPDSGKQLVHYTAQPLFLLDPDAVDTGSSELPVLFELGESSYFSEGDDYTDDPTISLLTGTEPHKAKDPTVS", "assay": "enhancement of HSF1-driven luciferase signal – cell-based, NIH3T3, luminescence, dose retest, confirmation (AID 435004);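 further: stress induced by proteasome inhibitor MG132 added 30 min after compound; actives raise luminescence as potentiators of the MG132 stress response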", "assay_type": "functional"}, "[7]": {"target": "T5, Corticotropin-releasing factor receptor 2/Corticotropin-releasing factor-binding protein (Homo sapiens, UniProt P24387+Q13324)", "T5 sequence (Q13324 whole entry)": "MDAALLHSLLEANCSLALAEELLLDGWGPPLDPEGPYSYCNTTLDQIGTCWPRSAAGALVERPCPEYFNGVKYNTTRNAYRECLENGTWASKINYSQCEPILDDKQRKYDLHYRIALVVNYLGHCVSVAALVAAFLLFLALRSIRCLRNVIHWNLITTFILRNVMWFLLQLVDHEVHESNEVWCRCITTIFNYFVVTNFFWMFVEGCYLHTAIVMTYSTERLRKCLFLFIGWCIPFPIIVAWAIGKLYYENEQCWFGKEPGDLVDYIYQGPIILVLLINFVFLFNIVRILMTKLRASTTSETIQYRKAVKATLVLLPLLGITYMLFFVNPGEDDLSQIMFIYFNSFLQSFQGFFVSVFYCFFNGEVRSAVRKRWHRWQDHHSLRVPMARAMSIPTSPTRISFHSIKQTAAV", "T5 sequence (P24387 whole entry)": "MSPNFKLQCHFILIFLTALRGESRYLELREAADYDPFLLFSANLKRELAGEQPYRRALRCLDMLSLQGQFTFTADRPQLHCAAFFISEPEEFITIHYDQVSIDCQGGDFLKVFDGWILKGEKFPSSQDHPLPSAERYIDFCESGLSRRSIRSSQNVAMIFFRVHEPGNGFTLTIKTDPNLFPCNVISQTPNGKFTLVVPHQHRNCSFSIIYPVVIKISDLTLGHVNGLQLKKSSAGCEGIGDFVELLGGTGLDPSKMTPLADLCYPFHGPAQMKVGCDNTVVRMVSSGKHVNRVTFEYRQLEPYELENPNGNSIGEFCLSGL", "assay": "Dose Response confirmation of uHTS hits for small molecule antagonists of the CRF-binding protein and CRF-R2 receptor complex.", "assay_type": "functional", "details": "read-out: IC50_Mean"}, "[8]": {"target": "T5, Corticotropin-releasing factor receptor 2/Corticotropin-releasing factor-binding protein", "assay": "activators of CRF receptor 2 with binding protein – uHTS hits, confirmation (AID 602473)", "assay_type": "functional", "details": "read-out: EC50_Mean"}, "[9]": {"target": "ADP-ribosylation factor GTPase-activating protein 1 (Rattus norvegicus, UniProt Q62848)", "sequence (Q62848 whole entry)": "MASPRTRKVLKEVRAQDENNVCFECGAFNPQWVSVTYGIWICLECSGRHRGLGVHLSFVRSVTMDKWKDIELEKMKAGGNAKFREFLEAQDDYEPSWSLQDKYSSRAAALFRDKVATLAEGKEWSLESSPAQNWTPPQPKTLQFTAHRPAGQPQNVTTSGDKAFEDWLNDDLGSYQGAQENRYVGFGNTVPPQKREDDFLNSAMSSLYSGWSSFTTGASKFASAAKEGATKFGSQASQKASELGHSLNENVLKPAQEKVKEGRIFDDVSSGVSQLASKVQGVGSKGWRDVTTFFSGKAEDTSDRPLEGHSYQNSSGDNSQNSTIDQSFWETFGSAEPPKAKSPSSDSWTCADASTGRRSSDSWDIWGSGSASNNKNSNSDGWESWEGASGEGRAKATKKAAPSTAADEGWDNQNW", "assay": "Fluorescence polarization-based biochemical high throughput dose response screening assay to identify inhibitors of ADP-ribosylation factor GTPase activating protein 1 (ARFGAP1).", "assay_type": "functional"}, "[10]": {"target": "Arf-GAP with SH3 domain, ANK repeat and PH domain-containing protein 1 (Homo sapiens, UniProt Q9ULH1)", "sequence (Q9ULH1 whole entry, the tested form may be a part)": "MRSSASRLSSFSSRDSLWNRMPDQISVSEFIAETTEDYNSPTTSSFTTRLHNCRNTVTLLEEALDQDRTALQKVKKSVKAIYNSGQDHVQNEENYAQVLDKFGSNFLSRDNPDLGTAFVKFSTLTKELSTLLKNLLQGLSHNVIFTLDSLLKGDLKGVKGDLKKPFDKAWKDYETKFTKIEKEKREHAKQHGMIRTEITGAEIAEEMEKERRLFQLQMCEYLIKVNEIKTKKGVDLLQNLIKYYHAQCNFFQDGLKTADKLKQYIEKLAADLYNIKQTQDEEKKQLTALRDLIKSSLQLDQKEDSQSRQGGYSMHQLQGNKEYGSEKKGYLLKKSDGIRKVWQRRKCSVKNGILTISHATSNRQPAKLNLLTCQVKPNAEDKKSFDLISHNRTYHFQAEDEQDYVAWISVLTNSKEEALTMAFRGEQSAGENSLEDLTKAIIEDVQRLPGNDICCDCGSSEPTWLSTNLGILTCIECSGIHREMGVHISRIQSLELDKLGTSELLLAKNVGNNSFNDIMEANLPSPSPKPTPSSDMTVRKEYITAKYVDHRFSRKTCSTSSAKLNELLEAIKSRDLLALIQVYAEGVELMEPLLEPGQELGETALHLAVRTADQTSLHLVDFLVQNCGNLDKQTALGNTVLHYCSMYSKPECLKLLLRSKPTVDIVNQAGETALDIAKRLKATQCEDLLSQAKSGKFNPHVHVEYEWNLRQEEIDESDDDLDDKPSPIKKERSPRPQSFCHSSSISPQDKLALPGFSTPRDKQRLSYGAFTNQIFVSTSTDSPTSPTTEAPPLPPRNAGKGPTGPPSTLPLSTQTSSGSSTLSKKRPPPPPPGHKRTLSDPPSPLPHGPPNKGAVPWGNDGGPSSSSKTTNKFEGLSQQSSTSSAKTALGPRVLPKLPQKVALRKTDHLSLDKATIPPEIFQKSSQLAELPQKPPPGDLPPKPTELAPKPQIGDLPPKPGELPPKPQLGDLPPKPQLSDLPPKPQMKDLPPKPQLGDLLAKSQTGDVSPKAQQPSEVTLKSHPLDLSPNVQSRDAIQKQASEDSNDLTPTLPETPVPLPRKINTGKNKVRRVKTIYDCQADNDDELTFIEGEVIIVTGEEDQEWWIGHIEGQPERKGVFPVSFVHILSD", "assay_type": "functional"}, "[11]": {"target": "T6, DNA repair protein RAD52 homolog (Homo sapiens, UniProt P43351)", "T6 sequence (P43351 whole entry)": "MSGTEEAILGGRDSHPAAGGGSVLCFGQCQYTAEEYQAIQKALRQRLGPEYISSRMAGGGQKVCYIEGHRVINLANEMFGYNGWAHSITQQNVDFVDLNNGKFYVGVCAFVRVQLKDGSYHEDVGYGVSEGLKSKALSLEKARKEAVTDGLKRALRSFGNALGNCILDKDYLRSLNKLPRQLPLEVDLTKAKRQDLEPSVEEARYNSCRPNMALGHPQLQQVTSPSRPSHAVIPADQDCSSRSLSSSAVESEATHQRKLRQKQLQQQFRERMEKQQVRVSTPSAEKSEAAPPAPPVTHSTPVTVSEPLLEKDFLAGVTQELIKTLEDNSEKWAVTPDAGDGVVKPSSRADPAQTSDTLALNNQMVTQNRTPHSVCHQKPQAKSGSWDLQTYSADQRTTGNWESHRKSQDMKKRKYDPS", "assay_type": "functional, biochemical"}}, "note": "The source made the active and inactive calls."}
{"smiles": "CC(COc1ccccc1)N1CCC(CO)(Cc2ccccc2)CC1", "note": "(stereo unspecified)", "values": [{"measurement": "EC50", "setting": "[1]", "result": "5.96 µM (active)"}, {"measurement": "EC50", "setting": "Mu-type opioid receptor", "result": "92.5 µM (inactive)"}, {"measurement": "EC50", "setting": "[2]", "result": "590 nM (active)"}]}
{"smiles": "Cc1ccc(Cl)c(OCCCN(C)Cc2ccccc2)c1", "values": [{"measurement": "CC50", "setting": "[3]", "result": "100 µM (active)"}, {"measurement": "IC50", "setting": "[4]", "result": "165 µM (active)"}]}
{"smiles": "COc1ccc(C(=O)NC(=S)NNC(=O)c2ccc(O)cc2)cc1[N+](=O)[O-]", "values": [{"measurement": "IC50", "setting": "Albumin", "result": "> 94.1 µM (inactive)"}]}
{"smiles": "COc1ccc(CC2(CO)CCN(Cc3cc4ccccc4o3)CC2)cc1", "values": [{"measurement": "EC50", "setting": "Mu-type opioid receptor", "result": "92.5 µM (inactive)"}, {"measurement": "EC50", "setting": "[2]", "result": "1070 nM (active)"}]}
{"smiles": "CN(C)S(=O)(=O)c1cccc(C(=O)OCC(=O)Nc2sccc2C#N)c1", "values": [{"measurement": "AC50", "setting": "[5]", "result": "> 100 µM (inactive)"}]}
{"smiles": "CN1c2ccccc2C(O)=C(C(S)=Nc2ccc(Cl)cc2)S1(=O)=O", "values": [{"measurement": "EC50", "setting": "[6]", "result": "> 260 µM (inconclusive)"}, {"measurement": "IC50", "setting": "[7]", "result": "24.7 µM (active)"}, {"measurement": "EC50", "setting": "[8]", "result": "> 53 µM (inactive)"}, {"measurement": "AC50", "setting": "[5]", "result": "> 100 µM (inactive)"}]}
{"smiles": "O=C(COc1ccc2oc(-c3ccco3)cc(=O)c2c1)N1CCCCC1", "values": [{"measurement": "IC50", "setting": "[9]", "result": "28.5 µM (inactive)"}, {"measurement": "IC50", "setting": "[10]", "result": "22.4 µM (inactive)"}]}
{"smiles": "O=Cc1ccc(N2N=C(c3ccccc3)CC2c2ccccc2)cc1", "note": "(stereo unspecified)", "values": [{"measurement": "AC50", "setting": "[5]", "result": "26.5 µM (active)"}]}
{"smiles": "COc1ccc(CN2CCN(c3ccccn3)CC2)c(OC)c1", "values": [{"measurement": "EC50", "setting": "Mu-type opioid receptor", "result": "92.5 µM (inactive)"}, {"measurement": "EC50", "setting": "[2]", "result": "529 nM (active)"}]}
{"smiles": "Nc1ccc(CC2=NCCN2)cc1", "values": [{"measurement": "AC50", "setting": "[11]", "result": "739 nM (active)"}]}
{"smiles": "CCc1ccc(O)c(/N=C/c2ccccc2O)c1", "values": [{"measurement": "CC50", "setting": "[3]", "result": "100 µM (active)"}, {"measurement": "IC50", "setting": "[4]", "result": "36.9 µM (active)"}]}
